Laboratory results: patent US9580390B2, “Indazole compounds as kinase inhibitors and method of treating cancer with same” (University Health Network, priority 2011, dated 2017)

Legend:
TICs (Colon 12) = test: Colon tumor-initiating cell growth inhibition (Alamar Blue); assay type: cell-based; details: 216 h; Colon 12 TICs, 9 days; read-out: Tumor Initiating Cell GI50 Range Colon 12
human TTK = target: T1, human TTK (Homo sapiens, UniProt P33981); test: TTK inhibition assay (indirect ELISA); assay type: biochemical; details: read-out: TTK IC50 Range
T1 construct: amino terminal GST fusion of full length human TTK; purchased Invitrogen
T1 sequence (P33981 1-857): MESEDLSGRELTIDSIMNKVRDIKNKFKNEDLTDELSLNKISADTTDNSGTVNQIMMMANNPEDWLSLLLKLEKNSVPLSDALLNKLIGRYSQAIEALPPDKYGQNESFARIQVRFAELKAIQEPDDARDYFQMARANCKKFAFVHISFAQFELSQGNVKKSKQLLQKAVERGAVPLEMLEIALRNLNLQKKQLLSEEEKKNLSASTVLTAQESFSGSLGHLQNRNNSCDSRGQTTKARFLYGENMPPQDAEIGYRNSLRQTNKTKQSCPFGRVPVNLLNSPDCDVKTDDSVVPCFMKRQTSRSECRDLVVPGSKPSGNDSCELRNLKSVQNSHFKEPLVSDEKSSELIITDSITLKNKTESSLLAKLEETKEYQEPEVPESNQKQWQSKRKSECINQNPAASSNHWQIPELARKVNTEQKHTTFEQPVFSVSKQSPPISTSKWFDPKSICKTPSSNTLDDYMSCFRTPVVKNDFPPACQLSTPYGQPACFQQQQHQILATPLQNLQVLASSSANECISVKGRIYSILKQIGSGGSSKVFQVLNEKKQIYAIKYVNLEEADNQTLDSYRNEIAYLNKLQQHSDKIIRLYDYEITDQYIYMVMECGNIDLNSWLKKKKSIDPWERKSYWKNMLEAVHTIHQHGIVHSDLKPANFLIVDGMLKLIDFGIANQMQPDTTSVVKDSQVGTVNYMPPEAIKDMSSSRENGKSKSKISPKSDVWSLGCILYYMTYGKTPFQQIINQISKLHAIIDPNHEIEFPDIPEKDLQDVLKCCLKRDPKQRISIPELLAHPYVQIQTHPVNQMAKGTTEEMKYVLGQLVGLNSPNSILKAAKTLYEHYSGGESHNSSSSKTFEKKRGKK

human PLK4 = target: T2, human PLK4 (Homo sapiens, UniProt O00444); test: PLK4 inhibition assay (indirect ELISA); assay type: biochemical; details: 15 μM ATP
T2 construct: amino terminal GST fusion of residues 1-391 of human PLK4; made in house; host or cells: E. coli
T2 sequence (O00444 1-391): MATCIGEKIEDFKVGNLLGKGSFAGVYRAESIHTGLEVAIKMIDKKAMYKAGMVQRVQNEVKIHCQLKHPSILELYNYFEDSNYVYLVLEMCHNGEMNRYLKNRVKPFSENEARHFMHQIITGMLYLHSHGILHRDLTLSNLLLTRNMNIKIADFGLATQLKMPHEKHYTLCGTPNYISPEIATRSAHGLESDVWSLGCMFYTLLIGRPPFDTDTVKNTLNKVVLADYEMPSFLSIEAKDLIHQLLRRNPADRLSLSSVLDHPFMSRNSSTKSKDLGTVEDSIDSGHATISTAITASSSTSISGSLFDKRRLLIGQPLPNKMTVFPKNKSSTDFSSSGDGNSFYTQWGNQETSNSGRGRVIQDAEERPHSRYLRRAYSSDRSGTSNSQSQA
How it was run: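 Dephosphorylated GST-PLK4 (residues 1-391, E. coli; 4 nM) was preincubated 15 min with compound, then reacted 30 min with 15 μM ATP in HEPES pH 7.4, MgCl2, Brij 35 on MBP-coated plates. Phospho-MBP was detected by antibody/HRP ELISA at 450 nm; IC50 from 10-point titration by 4-parameter logistic fit, or single 10 μM % inhibition.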

[1] = tested on: ovarian cancer cells (PA-1); test: Cancer cell line growth inhibition (SRB assay); assay type: cell-based; details: Homo sapiens, PA-1; read-out: Cancer Cell Line GI50 Range PA-1
TICs (Ovarian 2393A) = test: Ovarian tumor-initiating cell growth inhibition (Alamar Blue); assay type: cell-based; details: 144 h; Ovarian 2393A TICs, 6 days; read-out: Tumor Initiating Cell GI50 Range Ovarain 2393A
Breast cancer cells = test: Cancer cell line growth inhibition (SRB assay); assay type: cell-based; details: Homo sapiens; MDA-MB-468; read-out: Cancer Cell Line GI50 Range MDA-MB-468

| SMILES | GI50 (TICs (Colon 12)) [µM] | IC50 (human TTK) [µM] | IC50 (human PLK4) [µM] | GI50 [1] [µM] | GI50 (TICs (Ovarian 2393A)) [µM] | GI50 (Breast cancer cells) [µM] |
| --- | --- | --- | --- | --- | --- | --- |
| CC(C)C[C@@H](NC(=O)c1ccc2[nH]nc(-c3ccc(N4CCN(C5COC5)CC4)cc3)c2c1)c1ccccc1Cl [Example A300, (R)-N-(1-(2-chlorophenyl)-3-methylbutyl)-3-(4-(4-(oxetan-3-yl)piperazin-1-yl)phenyl)-1H-indazole-5-carboxamide] | < 0.1 | < 0.1 | < 0.05 | < 0.1 | 0.1 to 0.5 | < 0.1 |
| CC(C)[C@H](NC(=O)c1ccc2[nH]nc(-c3ccc(OC4CC5CCC(C4)N5C4COC4)cc3)c2c1)c1ccccc1Cl (stereo partly drawn) [Example A335] | < 0.1 | < 0.1 | < 0.05 | < 0.1 | < 0.1 | 0.1 to 0.5 |
